Key:
3T3-L1 fat cells [1] = experiment: Decomposition of fat: glycerol isolated into culture medium from 3T3-L1 fat cells; assay type: cell-based, rat; conditions: FIG. 1
Procedure: (§1) 3T3-L1 cell, fibroblast cell line of […], was inoculated in 6 well culture plate with 1×10^5cells/well and cultured in DMEM (Dulbecos modified eagles medium, GIBCO BRL, Life Technologes) containing 10% of fetal bovine serum (FBS). After 2 days of culture, culture medium was changed with a new DMEM (containing 10% FBS), and cultured further 2 days. Then the culture cell was deposited in a new DMEM (containing 10% FBS) containing 1 μg/ml of insulin, 0.5 mM of IBMX and 0.25 μM of dexamethasone to induce differentiation, after 2 days, the culture medium was changed with a new DMEM containing insulin, and cultured for 5 days. After 5 days of culture, the culture medium was changed with a normal DMEM (containing 10% FBS), and observed until cells changed to fat cells (adipocytes).
The degree of the decomposition of fat was observed by measuring the concentration of glycerol isolated into the culture medium from fat cell. Measurement of the quantity of the glycerol was performed with chromphoric reaction method using GPO-trinder kit purchased from Sigma (St. Louis, Mo., U.S.A.), and absorption was measured in 540 nm using ELISA reader, then the result of each component was calculated based on the data of the control settled to be 100%. […]

3T3-L1 cells = experiment: Accumulation of neutral fat in fat cells (GPO-trinder, absorption at 540 nm); assay type: cell-based, rat; conditions: 3T3-L1 cells treated during cell differentiation; compared with control; FIG. 4
Procedure: as §1
3T3-L1 fat cells differentiated in the Reference Example 2 were washed with PBS (phosphate buffered saline) three times, and harvested with extraction buffer (20 mM of Tris, 1 mM of EDTA and 1 mM of 2-mercaptoethanol). The harvested cells passed G26 needle 6 times on an ice base, centrifuged at 15000×g, 4° C. for 3 minutes and the supernatant was gathered to obtain cell extracts. […]
Neutral fats in the cell extracts obtained same as Experimental Example 3 underwent chromphoric reaction using GPO-trinder kit purchased from Sigma (St. Louis, Mo., U.S.A.), and absorption was measured at 540 nm using ELISA reader.

β3-adrenergic receptor = experiment: Expression of β3-adrenergic receptor by RT-PCR in 3T3-L1 fat cells; assay type: cell-based, rat; conditions: 0.005%, 24 hours, FIG. 2
Procedure: as §1
In order to clarify the mechanism of acceleration of decomposition of neutral fat by the theanine, 3T3-L1 fat cells differentiated in the Reference Example 2 were used. The cells were treated with 0.005% of theanine purchased from KuridaKogyo (Japan) (more than 97%) and comparative materials (caffeine, control), and 24 hours later, RNAs were extracted from the cells and performed RT-PCR. The RT-PCR kit was purchased from TaKaRa, and primer of β3 -adrenergic receptor was purchased from Bioneer.

[2] = test system: skin of a New Zealand white rabbit; experiment: Skin irritation (Draize Primary Irritation Index)
Procedure: Skin irritations caused by theanine, caffeine, genistein, L-carnitine and catechin were measured observing edema and erythema on the skin of a New Zealand white rabbit.
Vehicle, 10% of theanine, caffeine, genistein, L-carnitine, catechin or mixture thereof were applied on the skin of a New Zealand white rabbit, twice a day for 4 days, total 8 times. After application, total skin irritation index was calculated by summing up the scores of erythema and edema. The skin irritation index was calculated according to Draize's skin Primary Irritation Index (P.I.I.) (Draize, J. H., Appraisal of the safety of chemical in foods, drugs and cosmetics).

3T3-L1 fat cells [3] = experiment: Cell toxicity of theanine at high concentration; assay type: cell-based, mouse
[4] = New Zealand white, rabbit, in vivo, 4 days
[5] = New Zealand white rabbit, compared with control

Compound | concentration of glycerol isolated into the culture medium from fat cell (3T3-L1 fat cells [1]; compared with the control (100%)) | effect of decomposition of fat compared with caffeine (positive comparative control) (3T3-L1 fat cells [1]; same concentration of caffeine) | amount of neutral fat (3T3-L1 cells) | expression of β3-adrenergic receptor (β3-adrenergic receptor) | Primary Irritation Index (0˜4) [2, 4] | skin irritation ([2]; rabbit, in vivo) | cell toxicity (3T3-L1 fat cells [3]) | Primary Irritation Index (0˜4) ([2]; 10% solution on rabbit skin, twice a day for 4 days, total 8 times) | skin irritation [2, 5]
CCNC(=O)CC[C@H](N)C(=O)O [theanine] | increased | more excellent effect of decomposition of fat than that of caffeine | decreased | increases | 0.8 | do not cause skin irritation | does not cause cell toxicity |  | 
O=c1c(-c2ccc(O)cc2)coc2cc(O)cc(O)c12 [genistein] |  |  |  |  |  |  |  | 0.8 | do not cause skin irritation
Cn1c(=O)c2c(ncn2C)n(C)c1=O [caffeine, reference compound] |  |  |  |  | 0.7 |  |  |  | do not cause skin irritation
C[N+](C)(C)C[C@H](O)CC(=O)[O-] [L-carnitine] |  |  |  |  | 0.7 | do not cause skin irritation |  |  | 
